{
  "source": "patent US11464768B2",
  "about": "“Pimavanserin alone or in combination for use in the treatment of Alzheimer's disease psychosis” (ACADIA Pharmaceuticals Inc., priority 2016, dated 2022)",
  "origin": "cited, not measured here",
  "conditions": "tartrate salt; cited from earlier work",
  "data": [
    {"substance": "urea, N-[(4-fluorophenyl)methyl]-N-(1-methyl-4-piperidinyl)-N′-[[4-(2-methylpropoxy)phenyl]methyl]-,(2R,3R)-2,3-dihydroxybutanedioate (2:1) [Pimavanserin tartrate]", "values": [
      {"measurement": "solubility in water", "result": "freely soluble in water"}
    ]}
  ]
}
